# How the values were obtained:
# CYP2C9 = CYP2C9 (Homo sapiens, UniProt P11712); assay: CYP inhibition assay CYP2C9; type: in vitro ADME
# Source text: (§1) Cytochrome P450s (CYPs) are a family of enzymes that play a primary role in the metabolism of a wide variety of drugs. 2R,6R-hydroxynorketamine was investigated for its potential to inhibit the action of 7 key CYP enzymes using an inhibition assay measuring reduction in the formation of metabolites compared to control.
# MAO-B = MAO-B (Homo sapiens, UniProt P27338); assay: Binding assay MAO-B
# Chain of MAO-B (P27338 whole entry, species assumed): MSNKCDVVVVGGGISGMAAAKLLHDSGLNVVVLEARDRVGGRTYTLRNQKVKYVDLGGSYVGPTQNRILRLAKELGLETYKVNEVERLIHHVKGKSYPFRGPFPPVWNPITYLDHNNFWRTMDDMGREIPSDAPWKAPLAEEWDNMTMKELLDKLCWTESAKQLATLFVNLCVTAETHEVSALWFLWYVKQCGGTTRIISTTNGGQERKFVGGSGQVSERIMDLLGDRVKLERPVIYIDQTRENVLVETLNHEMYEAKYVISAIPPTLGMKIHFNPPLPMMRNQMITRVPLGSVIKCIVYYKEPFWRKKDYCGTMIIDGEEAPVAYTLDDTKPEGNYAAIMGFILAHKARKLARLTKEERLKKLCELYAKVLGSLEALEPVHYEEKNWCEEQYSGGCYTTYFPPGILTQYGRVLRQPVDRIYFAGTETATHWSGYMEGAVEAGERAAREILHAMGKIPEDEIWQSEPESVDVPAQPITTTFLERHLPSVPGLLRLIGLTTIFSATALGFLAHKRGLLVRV
# Source text: (§2) 2R,6R-hydroxynorketamine was investigated for binding to monoamine oxidases A and B, monoamine transporters, as well as a variety of 5HT receptors.
# CYP2D6 = CYP2D6 (Homo sapiens, UniProt P10635); assay: CYP inhibition assay CYP2D6; type: in vitro ADME
# Chain of CYP2D6 (P10635 whole entry): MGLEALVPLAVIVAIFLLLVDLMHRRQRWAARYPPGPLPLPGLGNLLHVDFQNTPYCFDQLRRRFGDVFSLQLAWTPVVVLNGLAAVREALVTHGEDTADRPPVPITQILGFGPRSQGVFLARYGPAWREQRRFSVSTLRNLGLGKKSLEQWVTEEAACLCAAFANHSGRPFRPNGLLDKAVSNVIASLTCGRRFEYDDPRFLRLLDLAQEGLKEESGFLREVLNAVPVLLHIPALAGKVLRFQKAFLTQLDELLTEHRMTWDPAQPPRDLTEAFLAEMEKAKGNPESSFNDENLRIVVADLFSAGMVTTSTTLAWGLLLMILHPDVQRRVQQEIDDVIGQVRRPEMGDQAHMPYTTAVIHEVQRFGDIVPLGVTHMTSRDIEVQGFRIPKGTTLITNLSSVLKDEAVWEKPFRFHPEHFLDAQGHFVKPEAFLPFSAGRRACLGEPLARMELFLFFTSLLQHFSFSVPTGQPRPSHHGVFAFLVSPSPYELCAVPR
# Source text: as §1
# [1] = DSC compatibility with excipients and capsule shells
# [2] = test system: cryopreserved hepatocytes; assay: Hepatocyte stability assay, rat; details: 3 μM
# Experimental: (§3) Test compound (3 μM) was incubated with cryopreserved hepatocytes in suspension. Samples are removed at 6 time points over the course of 120 minutes and analysed by LC-MS/MS.
# CYP2C19 = CYP2C19 (Homo sapiens, UniProt P33261); assay: CYP inhibition assay CYP2C19; type: in vitro ADME
# Chain of CYP2C19 (P33261 whole entry): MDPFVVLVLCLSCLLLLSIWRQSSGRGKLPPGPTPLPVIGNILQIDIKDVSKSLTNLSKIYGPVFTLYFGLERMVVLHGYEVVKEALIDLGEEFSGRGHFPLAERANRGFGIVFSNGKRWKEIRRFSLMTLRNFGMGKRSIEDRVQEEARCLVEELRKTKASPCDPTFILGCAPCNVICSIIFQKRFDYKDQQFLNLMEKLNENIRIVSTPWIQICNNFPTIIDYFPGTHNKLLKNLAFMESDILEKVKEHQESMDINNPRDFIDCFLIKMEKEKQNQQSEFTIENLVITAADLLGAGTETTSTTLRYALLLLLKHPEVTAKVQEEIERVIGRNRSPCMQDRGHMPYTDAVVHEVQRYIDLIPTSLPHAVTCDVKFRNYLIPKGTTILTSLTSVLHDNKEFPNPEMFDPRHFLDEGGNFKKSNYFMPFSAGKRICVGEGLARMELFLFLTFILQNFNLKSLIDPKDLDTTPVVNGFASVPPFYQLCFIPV
# Source text: as §1
# CYP3A4 [3] = target: T1, CYP3A4 (Homo sapiens, UniProt P08684); assay: CYP inhibition assay CYP3A4, substrate midazolam; type: in vitro ADME; details: for % Inhibition: Substrate = midazolam
# T1 sequence (P08684 whole entry): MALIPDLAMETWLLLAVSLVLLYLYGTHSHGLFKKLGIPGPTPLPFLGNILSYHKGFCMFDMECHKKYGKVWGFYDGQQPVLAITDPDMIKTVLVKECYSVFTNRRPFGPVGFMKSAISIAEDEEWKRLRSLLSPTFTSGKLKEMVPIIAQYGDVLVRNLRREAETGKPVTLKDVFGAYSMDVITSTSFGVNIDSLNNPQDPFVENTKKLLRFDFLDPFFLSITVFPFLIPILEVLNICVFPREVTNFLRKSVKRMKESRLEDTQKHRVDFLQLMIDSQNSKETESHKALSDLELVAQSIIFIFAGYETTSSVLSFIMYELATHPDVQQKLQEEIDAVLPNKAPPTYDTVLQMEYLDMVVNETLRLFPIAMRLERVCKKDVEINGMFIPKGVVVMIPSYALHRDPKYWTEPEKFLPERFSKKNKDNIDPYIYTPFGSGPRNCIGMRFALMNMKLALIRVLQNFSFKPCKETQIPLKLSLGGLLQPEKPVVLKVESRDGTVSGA
# Source text: as §1
# CYP3A4 [4] = target: T1, CYP3A4; assay: CYP inhibition assay CYP3A4, substrate testosterone; type: in vitro ADME; details: for % Inhibition: Substrate = testosterone
# Source text: as §1
# Metabolite profiling = type: in vitro ADME
# [5] = Turbidimetric aqueous solubility; type: physicochemical
# 5-HT2B = 5-HT2B (Homo sapiens, UniProt P41595); assay: Binding assay 5-HT2B
# Chain of 5-HT2B (P41595 whole entry, species assumed): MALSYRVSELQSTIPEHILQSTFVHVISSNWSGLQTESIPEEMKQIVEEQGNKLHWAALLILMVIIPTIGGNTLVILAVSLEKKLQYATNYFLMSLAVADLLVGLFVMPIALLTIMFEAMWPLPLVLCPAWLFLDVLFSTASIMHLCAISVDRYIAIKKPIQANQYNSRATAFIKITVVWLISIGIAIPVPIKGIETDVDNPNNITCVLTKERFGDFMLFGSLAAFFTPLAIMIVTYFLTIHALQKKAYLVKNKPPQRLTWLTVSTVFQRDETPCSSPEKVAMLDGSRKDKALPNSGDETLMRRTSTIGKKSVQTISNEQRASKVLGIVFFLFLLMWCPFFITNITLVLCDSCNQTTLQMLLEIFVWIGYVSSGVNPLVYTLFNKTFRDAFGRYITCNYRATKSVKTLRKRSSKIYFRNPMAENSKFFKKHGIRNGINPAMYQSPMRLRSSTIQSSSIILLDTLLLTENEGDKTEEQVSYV
# Source text: as §2
# UGT2B7 = UGT2B7 (Homo sapiens, UniProt P16662); assay: UGT inhibition assay UGT2B7; type: in vitro ADME
# Chain of UGT2B7 (P16662 24-529): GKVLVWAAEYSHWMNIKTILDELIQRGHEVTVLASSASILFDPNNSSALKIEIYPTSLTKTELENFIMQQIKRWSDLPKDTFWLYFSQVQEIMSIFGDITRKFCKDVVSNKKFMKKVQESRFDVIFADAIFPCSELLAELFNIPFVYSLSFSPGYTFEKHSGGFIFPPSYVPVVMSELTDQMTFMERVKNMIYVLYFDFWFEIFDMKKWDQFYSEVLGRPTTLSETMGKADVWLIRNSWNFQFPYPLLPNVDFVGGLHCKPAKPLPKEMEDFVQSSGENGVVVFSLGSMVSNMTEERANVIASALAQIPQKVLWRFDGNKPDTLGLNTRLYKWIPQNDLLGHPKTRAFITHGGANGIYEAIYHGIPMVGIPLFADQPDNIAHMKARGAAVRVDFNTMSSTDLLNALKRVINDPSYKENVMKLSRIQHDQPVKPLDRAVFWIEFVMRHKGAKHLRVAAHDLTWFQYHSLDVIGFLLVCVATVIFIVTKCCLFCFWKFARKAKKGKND
# 5-HT transporter = 5-HT transporter (Homo sapiens, UniProt P31645); assay: Binding assay 5-HT transporter
# Chain of 5-HT transporter (P31645 whole entry, species assumed): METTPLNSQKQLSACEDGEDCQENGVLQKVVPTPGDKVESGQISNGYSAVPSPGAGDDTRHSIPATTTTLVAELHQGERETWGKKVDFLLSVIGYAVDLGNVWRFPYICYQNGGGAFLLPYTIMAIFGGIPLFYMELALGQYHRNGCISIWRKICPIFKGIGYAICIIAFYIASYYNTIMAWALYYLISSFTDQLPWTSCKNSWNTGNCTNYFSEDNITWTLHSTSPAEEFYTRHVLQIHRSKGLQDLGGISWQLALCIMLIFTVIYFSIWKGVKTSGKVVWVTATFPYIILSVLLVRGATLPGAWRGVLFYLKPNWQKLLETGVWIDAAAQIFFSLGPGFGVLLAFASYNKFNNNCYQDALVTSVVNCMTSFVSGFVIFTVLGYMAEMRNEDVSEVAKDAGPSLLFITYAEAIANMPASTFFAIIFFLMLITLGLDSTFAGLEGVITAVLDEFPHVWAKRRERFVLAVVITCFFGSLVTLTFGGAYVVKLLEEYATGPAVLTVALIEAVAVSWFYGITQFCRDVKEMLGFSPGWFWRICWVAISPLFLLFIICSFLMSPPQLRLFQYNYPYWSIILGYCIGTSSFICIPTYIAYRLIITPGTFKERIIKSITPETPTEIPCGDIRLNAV
# Source text: as §2
# 5-HT1A = target: T2, 5-HT1A (Homo sapiens, UniProt P08908); assay: Binding assay 5-HT1A
# T2 sequence (P08908 1-422): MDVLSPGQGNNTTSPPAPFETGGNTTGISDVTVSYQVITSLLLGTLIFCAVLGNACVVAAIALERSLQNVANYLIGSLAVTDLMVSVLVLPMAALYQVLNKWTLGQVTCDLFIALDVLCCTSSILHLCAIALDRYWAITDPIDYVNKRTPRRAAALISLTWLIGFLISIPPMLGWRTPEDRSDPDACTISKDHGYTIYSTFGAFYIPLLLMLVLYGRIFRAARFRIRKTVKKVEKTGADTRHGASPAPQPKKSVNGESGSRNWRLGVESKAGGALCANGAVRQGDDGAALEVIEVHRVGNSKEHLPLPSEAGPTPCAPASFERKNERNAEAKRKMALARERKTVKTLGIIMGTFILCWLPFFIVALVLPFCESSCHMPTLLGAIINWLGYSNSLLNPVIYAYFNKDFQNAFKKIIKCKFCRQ
# Source text: as §2
# [6] = test system: cryopreserved hepatocytes; assay: Hepatocyte stability assay, dog; details: 3 μM
# Experimental: as §3
# [7] = Oral bioavailability in vivo after oral gavage; details: mice
# CYP1A2 = target: T3, CYP1A2 (Homo sapiens, UniProt P05177); assay: CYP inhibition assay CYP1A2; type: in vitro ADME
# T3 sequence (P05177 1-516): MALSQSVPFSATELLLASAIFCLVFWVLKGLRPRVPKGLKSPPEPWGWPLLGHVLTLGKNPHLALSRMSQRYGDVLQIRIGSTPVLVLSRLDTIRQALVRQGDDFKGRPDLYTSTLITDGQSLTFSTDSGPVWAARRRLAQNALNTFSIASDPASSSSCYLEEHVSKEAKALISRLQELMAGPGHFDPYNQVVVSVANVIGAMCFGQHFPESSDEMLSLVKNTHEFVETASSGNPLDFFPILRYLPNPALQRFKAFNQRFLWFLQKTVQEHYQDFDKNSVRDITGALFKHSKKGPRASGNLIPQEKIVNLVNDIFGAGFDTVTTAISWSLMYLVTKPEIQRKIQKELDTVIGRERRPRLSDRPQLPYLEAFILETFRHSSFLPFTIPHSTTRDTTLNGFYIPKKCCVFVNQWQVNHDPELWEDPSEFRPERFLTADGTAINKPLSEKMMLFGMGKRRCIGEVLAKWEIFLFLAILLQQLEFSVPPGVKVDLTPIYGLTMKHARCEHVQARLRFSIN
# Source text: as §1
# Chain of CYP2C9 (P11712 whole entry): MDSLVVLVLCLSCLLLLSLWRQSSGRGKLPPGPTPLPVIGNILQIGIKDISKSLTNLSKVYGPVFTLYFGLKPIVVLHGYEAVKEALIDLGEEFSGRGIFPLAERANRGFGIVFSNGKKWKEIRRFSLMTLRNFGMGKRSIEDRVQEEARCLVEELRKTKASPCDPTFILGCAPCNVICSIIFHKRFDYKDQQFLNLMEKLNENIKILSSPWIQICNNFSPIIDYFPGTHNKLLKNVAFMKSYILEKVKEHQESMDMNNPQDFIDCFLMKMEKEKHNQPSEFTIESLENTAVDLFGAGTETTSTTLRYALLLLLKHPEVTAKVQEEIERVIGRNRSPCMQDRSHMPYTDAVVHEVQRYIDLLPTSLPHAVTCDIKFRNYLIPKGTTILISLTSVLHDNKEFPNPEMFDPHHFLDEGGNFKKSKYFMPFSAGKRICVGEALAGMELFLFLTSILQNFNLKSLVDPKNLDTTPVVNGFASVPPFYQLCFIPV
smiles,measurement,setting,value
"N[C@@]1(c2ccccc2Cl)CCC[C@@H](O)C1=O [2R,6R-hydroxynorketamine, 2R,6R-2-(2-Chlorophenyl)-2-(amino)-6-hydroxycyclohexanone]",inhibition of CYP2C9 (in words),CYP2C9,did not inhibit
same,% Inhibition,CYP2C9; 0.4 μM,4.59%
same,% Inhibition,CYP2C9; 1 μM,5.92%
same,% Inhibition,CYP2C9; 4 μM,5.80%
same,% Inhibition,CYP2C9; 10 μM,11.9%
same,% Inhibition,CYP2C9; 40 μM,−0.113%
same,% Inhibition,CYP2C9; 100 μM,−1.33%
same,% Inhibition of Control Specific Binding,MAO-B,−1%
same,% of Control Specific Binding,MAO-B,100.4%
same,inhibition of CYP2D6 (in words),CYP2D6,did not inhibit
same,% Inhibition,CYP2D6; 0.4 μM,3.16%
same,% Inhibition,CYP2D6; 1 μM,6.65%
same,% Inhibition,CYP2D6; 4 μM,11.5%
same,% Inhibition,CYP2D6; 10 μM,9.41%
same,% Inhibition,CYP2D6; 40 μM,11.2%
same,% Inhibition,CYP2D6; 100 μM,5.73%
same,compatibility with dicalcium phosphate and microcrystalline cellulose,[1],compatibility
same,compatibility with lactose monohydrate (DSC),[1]; binary mix 1:2 API:Excipient,incompatible
same,CLint,[2],55.2 μL/min/10^6 cells
same,t1/2,[2],0.418 h
same,inhibition of CYP2C19 (in words),CYP2C19,did not inhibit
same,% Inhibition,CYP2C19; 0.4 μM,−2.01%
same,% Inhibition,CYP2C19; 1 μM,−1.66%
same,% Inhibition,CYP2C19; 4 μM,1.85%
same,% Inhibition,CYP2C19; 10 μM,6.69%
same,% Inhibition,CYP2C19; 40 μM,8.25%
same,% Inhibition,CYP2C19; 100 μM,16.1%
same,% Inhibition,CYP3A4 [3]; 0.4 μM,11.5%
same,% Inhibition,CYP3A4 [3]; 1 μM,8.44%
same,% Inhibition,CYP3A4 [3]; 4 μM,15.7%
same,% Inhibition,CYP3A4 [3]; 10 μM,25.7%
same,% Inhibition,CYP3A4 [3]; 40 μM,43.7%
same,% Inhibition,CYP3A4 [3]; 100 μM,57.5%
same,IC50,CYP3A4 [3]; substrate midazolam,69 µM
same,% Inhibition,CYP3A4 [4]; 0.4 μM,1.62%
same,% Inhibition,CYP3A4 [4]; 1 μM,−0.509%
same,% Inhibition,CYP3A4 [4]; 4 μM,7.04%
same,% Inhibition,CYP3A4 [4]; 10 μM,12.4%
same,% Inhibition,CYP3A4 [4]; 40 μM,35.2%
same,% Inhibition,CYP3A4 [4]; 100 μM,53.4%
same,IC50,CYP3A4 [4]; substrate testosterone,81 µM
same,metabolic route (in words),Metabolite profiling,"does not undergo phase I metabolism by CYP enzymes, but is glucuronidated"
same,solubility (in words),[5],high
same,% Inhibition of Control Specific Binding,5-HT2B,5%
same,% of Control Specific Binding,5-HT2B,100.9%
same,binding to 5HT2B receptor subtype (in words),5-HT2B,does not bind
same,inhibition of UGT2B7 (in words),UGT2B7,does not inhibit
same,% Inhibition of Control Specific Binding,5-HT transporter,2%
same,% of Control Specific Binding,5-HT transporter,102.0%
same,% Inhibition of Control Specific Binding,5-HT1A,5%
same,% of Control Specific Binding,5-HT1A,97.9%
same,binding to 5HT1A receptor subtype (in words),5-HT1A,does not bind
same,CLint,[6],4.72 μL/min/10^6 cells
same,t1/2,[6],4.9 h
same,oral bioavailability,[7]; high oral dose (>30 mg/kg),good
same,oral bioavailability,[7]; low oral dose,poor
same,IC50,CYP1A2,~100 µM
same,% Inhibition,CYP1A2; 0.4 μM,7.55%
same,% Inhibition,CYP1A2; 1 μM,8.80%
same,% Inhibition,CYP1A2; 4 μM,11.7%
same,% Inhibition,CYP1A2; 10 μM,19.3%
same,% Inhibition,CYP1A2; 40 μM,24.8%
same,% Inhibition,CYP1A2; 100 μM,48.6%
